{"source": "paper PMC6838876", "about": "(Heliyon, 2019)", "key": {"[1]": {"assay": "Urinary excretion rate after oral gavage to non-fasted rats (HPLC of urine, free and conjugated forms)", "format": "in vivo, Male Wistar rats", "settings": "40 mg/kg BW gavage; for Total urinary excretion rate at 48 h: all free and conjugated HAs", "procedure": "The urine samples were stored at -80 °C until analysis. The rats were fed the AIN-93M diet throughout the experiment. This study was approved by the Animal Care Committee of Kindai University (permit number KABT-24-002), and the animals were maintained in accordance with the guidelines. Sample size, dose, and duration of urine collection were determined on the basis of our preliminary experiments.\nThe HA composition in urine was determined by the method described by Zhao et al. with a modification. […] The urine sample (20 μL) was added to 360 μL of acetic acid buffer (pH 5.0) containing 10 μg/mL sinapinic acid (internal standard) and 20 μL of acetic acid buffer (pH 5.0). The mixed solution was filtered through a 0.20 μm disposable syringe filter unit. The filtrate was analyzed by HPLC to quantify free forms of the HAs. Enzymatic hydrolysis was used to determine conjugated forms (glucuronidated and/or sulfated forms). The urine sample (20 μL) was added to 360 μL of acetic acid buffer (pH 5.0) containing 10 μg/mL sinapinic acid (internal standard) and 20 μL of β-glucuronidase type H-2 (containing both β-glucuronidase and sulfatase activity). […] The mixture was saturated with nitrogen gas and incubated at 37 °C for 2 h, followed by filtration through a 0.20 μm disposable syringe filter unit. The filtrate was analyzed by HPLC and the total amount of HAs (free forms and conjugated forms) was quantified. The conjugated HA levels were calculated by subtracting the amount of HA free forms from the total amount of HAs. […] The separation was performed using a 0.1% (v/v) trifluoroacetic acid–methanol solution (75:25, v/v) as the mobile phase at a flow rate of 1.0 mL/min at 40 °C. The injection volume was 10 μL. p-Coumaric acid was detected at 309 nm and the other HAs as well as sinapinic acid were detected at 325 nm based on the maximum absorbance. The urinary excretion rate was calculated as the percentage of the dose (mol/mol)."}, "[2]": {"settings": "rats fed supplemented diet; cited from earlier work"}, "[3]": {"set-up": "method as in PMID 12097677, PMID 12730422", "settings": "cited from earlier work"}, "[4]": {"set-up": "method as in PMID 16608213", "settings": "fasted rats, cited from earlier work"}}, "note": "Marks after values point to notes of the source that are not given here.", "data": [{"molecule": "O=C(O)/C=C/c1ccc(O)c(O)c1", "note": "[Caffeic acid, caffeic acid]", "values": [{"measurement": "Caffeic acid urinary excretion rate", "setting": "[1]; urine 0-6 h", "value": "7.1 % of the dose"}]}, {"molecule": "O=C(/C=C/c1ccc(O)c(O)c1)O[C@@H]1C[C@](O)(C(=O)O)C[C@@H](O)[C@H]1O", "note": "[Chlorogenic acid, chlorogenic acid]", "values": [{"measurement": "Urinary excretion of chlorogenic acid or the total amount of caffeic, ferulic, and isoferulic acids", "setting": "[2]", "value": "less than 1 % of the chlorogenic acid intake"}, {"measurement": "Chlorogenic acid excreted in the urine at 48 h", "setting": "[1]; urine 0-48 h, free form, mean ± SE n = 4, 40 mg/kg", "value": "0.04 ± 0.005^a % of the dose"}, {"measurement": "Chlorogenic acid excreted in the urine at 48 h", "setting": "[1]; urine 0-48 h, free form, mean ± SE n = 4, listed as chlorogenic acid, 40 mg/kg", "value": "0.04 % of the dose"}]}, {"molecule": "COc1cc(/C=C/C(=O)O)ccc1O", "note": "[Ferulic acid, ferulic acid]", "values": [{"measurement": "Ingested ferulic acid recovered as conjugated forms in the urine", "setting": "[3]", "value": "50–70%"}, {"measurement": "Total urinary excretion rate at 48 h", "setting": "[1]; mean ± SE n = 4, 40 mg/kg", "value": "73.2 ± 2.1 % of the dose"}, {"measurement": "Total urinary excretion rate at 48 h", "setting": "[1]; mean ± SE n = 4, listed as ferulic acid, 40 mg/kg", "value": "73.2 % of the dose"}, {"measurement": "Ferulic acid excreted in the urine at 48 h", "setting": "[1]; urine 0-48 h, free form, mean ± SE n = 4", "value": "3.01 ± 0.38^a % of the dose"}, {"measurement": "Ferulic acid conjugates excreted in the urine at 48 h", "setting": "[1]; urine 0-48 h, mean ± SE n = 4", "value": "70.2 ± 6.8^b % of the dose"}, {"measurement": "Ferulic acid conjugates urinary excretion rate", "setting": "[1]; urine 0-6 h", "value": "64.1 % of the dose"}, {"measurement": "Ferulic acid urinary excretion rate", "setting": "[1]; urine 0-6 h", "value": "3.0 % of the dose"}, {"measurement": "Percentage of conjugates in the total urinary excretion", "setting": "[1]; urine at 48 h", "value": 96, "unit": "%"}]}, {"molecule": "O=C(O)/C=C/c1ccc(O)cc1", "note": "[p-Coumaric acid, p-coumaric acid]", "values": [{"measurement": "p-Coumaric acid urinary excretion rate", "setting": "[1]; urine 0-6 h", "value": "14.2 % of the dose"}, {"measurement": "Ingested p-coumaric acid found in the urine as an intact form", "setting": "[4]; gavage", "value": 23, "unit": "%"}, {"measurement": "Time after gavage within which the majority of p-coumaric acid was detected in urine", "setting": "[4]", "value": "≤ 4", "unit": "h"}]}]}
